Measurements from patent US12637469B2, “1H-pyrazole derivative and application thereof as dual target inhibitor of Syk and VEGFR2” (Ocumension Therapeutics (Suzhou) Co., Ltd., priority 2020, dated 2026).

Tests used:
PDGFRα(h) = target: T1, PDGFRα(h) (Homo sapiens, UniProt P16234); assay: Eurofins KinaseProfiler off-target kinase inhibition; format: biochemical
T1 construct: purchased Eurofins (KinaseProfiler service)
Experimental: (§1) In order to investigate the specificity of the inhibition of the target by the compound, in this study, the activity and selectivity of test compound 1 on the off-target kinases in related pathways were tested on the Eurofins kinaseProfiler™ platform, and compound screening and analysis were conducted using IC50 value as the indicator.
(§2) Compound 1 was detected for each selected kinase using the standard Eurofins Kinase Profiler™ protocol, which followed the relevant standard operating procedures. The IC50 values of the inhibitory activity of the test compound 1 on 67 kinases including Abl(h), B-Raf(h), BTK(h) and JAK(h) were analyzed.

Hck(h)activated = target: T2, Hck(h)activated (Homo sapiens, UniProt P08631); assay: as above; format: biochemical
T2 construct: purchased Eurofins (KinaseProfiler service)
Experimental: as §1, §2

Ros(h) = target: T3, Ros(h) (Homo sapiens, UniProt P08922); assay: as above; format: biochemical
T3 construct: purchased Eurofins (KinaseProfiler platform)
Experimental: as §1, §2

MAP4K4(h) = target: T4, MAP4K4(h) (Homo sapiens, UniProt O95819); assay: as above; format: biochemical
T4 construct: purchased Eurofins (KinaseProfiler service)
Experimental: as §1, §2

Ret(h) = target: T5, Ret(h) (Homo sapiens, UniProt P07949); assay: as above; format: biochemical
T5 construct: purchased Eurofins (KinaseProfiler platform)
Experimental: as §1, §2

CDK2/cyclinA(h) = target: T6, CDK2/cyclinA(h) (Homo sapiens, UniProt P24941); assay: as above; format: biochemical
T6 construct: purchased Eurofins (KinaseProfiler platform)
Experimental: as §1, §2

JNK2α2(h) = target: T7, JNK2α2(h) (Homo sapiens, UniProt P45984); assay: as above; format: biochemical
T7 construct: purchased Eurofins (KinaseProfiler service)
Experimental: as §1, §2

c-kit(h) = target: T8, c-kit(h) (Homo sapiens, UniProt P10721); assay: as above; format: biochemical
T8 construct: purchased Eurofins (KinaseProfiler platform)
Experimental: as §1, §2

SAPK3(h) = target: T9, SAPK3(h) (Homo sapiens, UniProt P53778); assay: as above; format: biochemical
T9 construct: purchased Eurofins (KinaseProfiler platform)
Experimental: as §1, §2

SAPK2a(h) = target: T10, SAPK2a(h) (Homo sapiens, UniProt Q16539); assay: as above; format: biochemical
T10 construct: purchased Eurofins (KinaseProfiler platform)
Experimental: as §1, §2

Lck(h)activated = target: T11, Lck(h)activated (Homo sapiens, UniProt P06239); assay: as above; format: biochemical
T11 construct: purchased Eurofins (KinaseProfiler service)
Experimental: as §1, §2

JAK3(h) = target: T12, JAK3(h) (Homo sapiens, UniProt P52333); assay: as above; format: biochemical
T12 construct: purchased Eurofins (KinaseProfiler service)
Experimental: as §1, §2

CHK1(h) = target: T13, CHK1(h) (Homo sapiens, UniProt O14757); assay: as above; format: biochemical
T13 construct: purchased Eurofins (KinaseProfiler platform)
Experimental: as §1, §2

Abl(h) = target: T14, Abl(h) (Homo sapiens, UniProt P00519); assay: as above; format: biochemical
T14 construct: purchased Eurofins (KinaseProfiler platform)
Experimental: as §1, §2

TGFBR1(h) = target: T15, TGFBR1(h) (Homo sapiens, UniProt P36897); assay: as above; format: biochemical
T15 construct: purchased Eurofins (KinaseProfiler platform)
Experimental: as §1, §2

CSK(h) = target: T16, CSK(h) (Homo sapiens, UniProt P41240); assay: as above; format: biochemical
T16 construct: purchased Eurofins (KinaseProfiler platform)
Experimental: as §1, §2

Yes(h) = target: T17, Yes(h) (Homo sapiens, UniProt P07947); assay: as above; format: biochemical
T17 construct: purchased Eurofins (KinaseProfiler platform)
Experimental: as §1, §2

CDK6/cyclinD3(h) = target: T18, CDK6/cyclinD3(h) (Homo sapiens, UniProt Q00534); assay: as above; format: biochemical
T18 construct: purchased Eurofins (KinaseProfiler platform)
Experimental: as §1, §2

IR(h) = target: T19, IR(h) (Homo sapiens, UniProt P06213); assay: as above; format: biochemical
T19 construct: purchased Eurofins (KinaseProfiler service)
Experimental: as §1, §2

Rse(h) = target: T20, Rse(h) (Homo sapiens, UniProt Q06418); assay: as above; format: biochemical
T20 construct: purchased Eurofins (KinaseProfiler platform)
Experimental: as §1, §2

Src(1-530)(h) = target: T21, Src(1-530)(h) (Homo sapiens, UniProt P12931); assay: as above; format: biochemical
T21 construct: Src(1-530)(h); purchased Eurofins (KinaseProfiler platform)
Experimental: as §1, §2

TYK2(h) = target: T22, TYK2(h) (Homo sapiens, UniProt P29597); assay: as above; format: biochemical
T22 construct: purchased Eurofins (KinaseProfiler platform)
Experimental: as §1, §2

Lyn(h) = target: T23, Lyn(h) (Homo sapiens, UniProt P07948); assay: as above; format: biochemical
T23 construct: purchased Eurofins (KinaseProfiler service)
Experimental: as §1, §2

cSRC(h) = target: T24, cSRC(h) (Homo sapiens, UniProt P12931); assay: as above; format: biochemical
T24 construct: purchased Eurofins (KinaseProfiler platform)
Experimental: as §1, §2

SAPK2b(h) = target: T25, SAPK2b(h) (Homo sapiens, UniProt Q15759); assay: as above; format: biochemical
T25 construct: purchased Eurofins (KinaseProfiler platform)
Experimental: as §1, §2

CK1ε(h) = target: T26, CK1ε(h) (Homo sapiens, UniProt P49674); assay: as above; format: biochemical
T26 construct: purchased Eurofins (KinaseProfiler platform)
Experimental: as §1, §2

CYP1A2 = target: T27, CYP1A2 (Homo sapiens, UniProt P05177); assay: Inhibition of cytochrome P450 enzymes in human liver microsomes (LC-MS/MS); format: in vitro ADME
T27 construct: human liver microsome working solution was prepared; from tissue; host or cells: human liver microsomes
Experimental: (§3) In order to investigate the activity of the compound on human liver microsomal CYP450 enzyme, Liquid Chromatography-Mass Spectrometry/Mass Spectrometry (LC-MS/MS) method was used in this study to determine the inhibitory effect of compound 1 on five main subtypes (CYP1A2, 2C9, 2C19, 2D6, 3A4) of human hepatocyte CYP450 enzyme, and compound screening and analysis were conducted using IC50 value as the indicator.
(§4) • 1) A test compound and a standard inhibitor working solution (100×) were prepared; • 2) microsomes were taken out of a −80° C. freezer, thawed on ice, labeled with the date, and put back in the freezer immediately after use; • 3) 20 microliters of matrix solution was added to the corresponding wells; • 4) 20 microliters of phosphate buffered saline was added to the blank wells; • 5) 2 microliters of the test compound and positive control working solution were added to the corresponding wells; • 6) 2 microliters of solvent was added to each of the inhibitor-free wells and the blank wells; • 7) human liver microsome working solution was prepared; • 8) 158 microliters of HLM working solution was added to all wells of the incubation plate; • 9) the plate was heated in a 37° C. water bath for about 10 minutes; • 10) NADPH cofactor solution was prepared; • 11) 20 microliters of NADPH cofactor was added to all of the incubation wells; • 12) all CYPs were subjected to mixed culture in a 37° C. water bath for 10 minutes; • 13) at a certain point in time, the reaction was stopped by adding 400 microliters of cold solution (200 ng/mL of tolbutamide in acetonitrile and 200 ng/mL of Labetalol in acetonitrile); • 14) the samples were centrifuged at 4000 rpm for 20 minutes to precipitate proteins; • 15) 200 microliters of supernatant was transferred into 100 microliters of high performance liquid chromatography water, and shaked for 10 minutes; • 16) LC/MS/MS analysis was started.

CYP2D6 = target: T28, CYP2D6 (Homo sapiens, UniProt P10635); assay: as above; format: in vitro ADME
T28 construct: human liver microsome working solution was prepared; from tissue; host or cells: human liver microsomes
Experimental: as §3, §4

T16 sequence (P41240 whole entry): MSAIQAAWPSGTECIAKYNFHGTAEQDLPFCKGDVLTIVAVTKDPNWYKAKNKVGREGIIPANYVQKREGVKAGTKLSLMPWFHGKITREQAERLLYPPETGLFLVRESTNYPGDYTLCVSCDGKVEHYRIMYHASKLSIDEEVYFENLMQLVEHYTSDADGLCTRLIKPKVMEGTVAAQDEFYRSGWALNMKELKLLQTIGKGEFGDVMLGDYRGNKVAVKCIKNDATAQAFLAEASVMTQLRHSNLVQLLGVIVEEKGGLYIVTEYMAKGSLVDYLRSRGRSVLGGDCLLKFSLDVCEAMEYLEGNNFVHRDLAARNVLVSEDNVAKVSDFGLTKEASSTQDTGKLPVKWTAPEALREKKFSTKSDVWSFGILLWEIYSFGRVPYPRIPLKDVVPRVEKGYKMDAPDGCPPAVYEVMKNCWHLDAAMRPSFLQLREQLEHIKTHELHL
T3 sequence (P08922 28-2347): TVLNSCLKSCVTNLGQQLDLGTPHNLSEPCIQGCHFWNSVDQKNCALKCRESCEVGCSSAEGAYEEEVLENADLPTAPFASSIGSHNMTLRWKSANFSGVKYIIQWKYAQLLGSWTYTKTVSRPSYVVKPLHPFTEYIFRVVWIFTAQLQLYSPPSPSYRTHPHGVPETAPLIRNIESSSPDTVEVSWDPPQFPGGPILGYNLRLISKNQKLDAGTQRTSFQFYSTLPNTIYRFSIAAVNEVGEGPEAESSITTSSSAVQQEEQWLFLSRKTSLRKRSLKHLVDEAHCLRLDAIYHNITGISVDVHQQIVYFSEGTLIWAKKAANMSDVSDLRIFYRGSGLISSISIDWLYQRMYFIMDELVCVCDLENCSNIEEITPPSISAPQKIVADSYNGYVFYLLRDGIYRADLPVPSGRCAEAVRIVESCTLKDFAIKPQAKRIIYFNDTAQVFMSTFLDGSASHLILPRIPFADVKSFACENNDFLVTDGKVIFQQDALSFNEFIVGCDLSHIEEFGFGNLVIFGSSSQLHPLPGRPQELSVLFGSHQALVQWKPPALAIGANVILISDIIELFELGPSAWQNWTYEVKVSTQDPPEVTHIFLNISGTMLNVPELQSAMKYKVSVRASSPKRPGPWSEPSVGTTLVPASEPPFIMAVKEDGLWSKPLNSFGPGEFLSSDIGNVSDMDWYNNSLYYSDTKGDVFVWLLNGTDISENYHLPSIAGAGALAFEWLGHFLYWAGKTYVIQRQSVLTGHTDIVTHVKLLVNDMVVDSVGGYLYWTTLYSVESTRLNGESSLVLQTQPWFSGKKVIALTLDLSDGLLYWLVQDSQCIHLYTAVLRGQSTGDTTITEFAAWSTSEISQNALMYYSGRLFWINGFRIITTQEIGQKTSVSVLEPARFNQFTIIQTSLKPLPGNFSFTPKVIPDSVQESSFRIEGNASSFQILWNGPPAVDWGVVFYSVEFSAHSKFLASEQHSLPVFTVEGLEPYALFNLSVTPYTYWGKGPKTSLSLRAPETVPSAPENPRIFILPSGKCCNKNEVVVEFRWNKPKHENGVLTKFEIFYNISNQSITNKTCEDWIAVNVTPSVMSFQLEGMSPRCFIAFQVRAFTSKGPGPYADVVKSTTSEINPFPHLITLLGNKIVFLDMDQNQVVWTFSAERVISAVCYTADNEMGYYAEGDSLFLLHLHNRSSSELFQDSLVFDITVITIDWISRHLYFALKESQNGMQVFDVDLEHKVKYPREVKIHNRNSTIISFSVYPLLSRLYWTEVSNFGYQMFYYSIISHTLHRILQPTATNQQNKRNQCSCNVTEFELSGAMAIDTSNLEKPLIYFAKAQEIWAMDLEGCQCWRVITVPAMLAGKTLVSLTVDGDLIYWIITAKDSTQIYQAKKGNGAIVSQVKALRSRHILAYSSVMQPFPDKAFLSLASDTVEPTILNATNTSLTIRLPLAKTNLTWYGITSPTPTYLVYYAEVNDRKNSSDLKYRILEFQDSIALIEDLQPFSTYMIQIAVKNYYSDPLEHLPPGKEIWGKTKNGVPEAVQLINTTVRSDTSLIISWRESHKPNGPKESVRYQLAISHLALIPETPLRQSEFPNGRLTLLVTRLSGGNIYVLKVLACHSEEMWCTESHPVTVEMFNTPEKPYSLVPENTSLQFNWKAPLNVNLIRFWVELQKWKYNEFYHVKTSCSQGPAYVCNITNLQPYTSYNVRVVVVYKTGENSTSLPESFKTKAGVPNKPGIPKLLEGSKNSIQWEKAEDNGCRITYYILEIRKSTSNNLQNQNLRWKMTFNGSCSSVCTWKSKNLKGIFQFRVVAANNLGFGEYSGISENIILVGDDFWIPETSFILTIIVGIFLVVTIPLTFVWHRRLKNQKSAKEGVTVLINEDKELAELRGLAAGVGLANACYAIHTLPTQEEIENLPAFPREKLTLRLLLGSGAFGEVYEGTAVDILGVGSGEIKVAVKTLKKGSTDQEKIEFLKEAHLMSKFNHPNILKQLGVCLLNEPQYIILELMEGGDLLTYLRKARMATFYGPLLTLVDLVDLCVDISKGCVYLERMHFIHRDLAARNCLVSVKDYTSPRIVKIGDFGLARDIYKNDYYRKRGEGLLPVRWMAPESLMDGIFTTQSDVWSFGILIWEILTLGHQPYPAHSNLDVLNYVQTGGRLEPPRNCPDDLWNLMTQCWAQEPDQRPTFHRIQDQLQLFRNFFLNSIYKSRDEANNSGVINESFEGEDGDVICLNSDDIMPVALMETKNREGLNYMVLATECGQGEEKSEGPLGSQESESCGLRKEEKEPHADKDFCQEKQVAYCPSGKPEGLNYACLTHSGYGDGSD
T15 sequence (P36897 34-503): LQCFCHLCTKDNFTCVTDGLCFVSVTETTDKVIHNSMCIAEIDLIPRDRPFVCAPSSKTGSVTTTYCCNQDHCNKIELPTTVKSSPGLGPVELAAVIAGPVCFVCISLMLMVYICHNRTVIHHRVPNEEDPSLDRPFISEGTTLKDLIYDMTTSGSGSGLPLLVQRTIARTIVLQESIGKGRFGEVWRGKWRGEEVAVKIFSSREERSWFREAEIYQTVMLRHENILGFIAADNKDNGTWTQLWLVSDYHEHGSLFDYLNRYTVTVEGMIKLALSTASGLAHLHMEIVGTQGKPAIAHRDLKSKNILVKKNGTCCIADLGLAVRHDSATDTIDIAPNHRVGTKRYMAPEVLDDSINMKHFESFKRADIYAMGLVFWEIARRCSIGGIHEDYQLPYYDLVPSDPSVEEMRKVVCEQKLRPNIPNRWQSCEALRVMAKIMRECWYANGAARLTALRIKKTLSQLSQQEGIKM
T26 sequence (P49674 whole entry): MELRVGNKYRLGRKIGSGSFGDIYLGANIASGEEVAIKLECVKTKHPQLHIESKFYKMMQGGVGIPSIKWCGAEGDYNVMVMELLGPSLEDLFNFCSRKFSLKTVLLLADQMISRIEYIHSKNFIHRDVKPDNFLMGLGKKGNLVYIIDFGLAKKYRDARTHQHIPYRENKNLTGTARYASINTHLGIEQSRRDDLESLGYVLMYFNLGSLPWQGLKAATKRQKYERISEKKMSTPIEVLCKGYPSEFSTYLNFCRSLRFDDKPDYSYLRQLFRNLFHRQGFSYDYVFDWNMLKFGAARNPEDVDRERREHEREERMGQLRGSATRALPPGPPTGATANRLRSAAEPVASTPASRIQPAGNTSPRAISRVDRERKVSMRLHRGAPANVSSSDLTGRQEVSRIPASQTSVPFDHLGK
T9 sequence (P53778 whole entry): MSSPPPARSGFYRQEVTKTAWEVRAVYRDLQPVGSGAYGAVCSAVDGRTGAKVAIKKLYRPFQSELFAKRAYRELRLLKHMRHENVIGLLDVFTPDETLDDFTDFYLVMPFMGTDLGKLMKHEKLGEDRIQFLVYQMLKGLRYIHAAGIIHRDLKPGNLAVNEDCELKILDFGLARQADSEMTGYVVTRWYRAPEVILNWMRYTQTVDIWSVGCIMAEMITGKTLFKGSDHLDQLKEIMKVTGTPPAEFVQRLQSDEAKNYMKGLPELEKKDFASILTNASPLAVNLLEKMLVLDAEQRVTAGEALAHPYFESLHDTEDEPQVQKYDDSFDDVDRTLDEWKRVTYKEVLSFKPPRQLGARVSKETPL
T8 sequence (P10721 26-976): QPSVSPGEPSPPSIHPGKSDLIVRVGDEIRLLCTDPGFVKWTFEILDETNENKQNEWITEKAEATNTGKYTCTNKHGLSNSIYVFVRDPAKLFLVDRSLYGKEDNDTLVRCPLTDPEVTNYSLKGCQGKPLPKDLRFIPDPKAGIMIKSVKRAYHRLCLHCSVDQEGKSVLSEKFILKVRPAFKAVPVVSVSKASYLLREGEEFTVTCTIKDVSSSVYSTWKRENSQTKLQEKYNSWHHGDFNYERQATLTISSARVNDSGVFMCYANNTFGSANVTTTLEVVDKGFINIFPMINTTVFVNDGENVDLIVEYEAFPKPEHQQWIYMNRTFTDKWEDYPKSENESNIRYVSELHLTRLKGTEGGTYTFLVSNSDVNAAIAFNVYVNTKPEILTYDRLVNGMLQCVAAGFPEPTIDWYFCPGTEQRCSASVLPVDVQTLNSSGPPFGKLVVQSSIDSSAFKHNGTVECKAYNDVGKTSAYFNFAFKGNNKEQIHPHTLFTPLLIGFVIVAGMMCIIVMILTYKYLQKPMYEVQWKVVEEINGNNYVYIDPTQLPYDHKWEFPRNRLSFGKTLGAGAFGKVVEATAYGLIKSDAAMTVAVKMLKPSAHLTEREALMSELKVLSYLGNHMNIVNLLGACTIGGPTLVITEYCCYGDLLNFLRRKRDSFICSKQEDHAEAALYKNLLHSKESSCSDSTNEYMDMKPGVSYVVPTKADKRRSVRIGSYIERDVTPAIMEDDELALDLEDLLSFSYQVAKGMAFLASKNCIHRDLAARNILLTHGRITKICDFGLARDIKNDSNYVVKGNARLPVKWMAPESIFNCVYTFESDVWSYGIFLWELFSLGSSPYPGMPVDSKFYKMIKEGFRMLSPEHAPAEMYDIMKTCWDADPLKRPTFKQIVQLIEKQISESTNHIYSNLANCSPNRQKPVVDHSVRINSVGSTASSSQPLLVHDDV

Structure (SMILES): c1cn2c(n1)c(Nc1ccc(N3CCOCC3)cc1)nc1ccc(-c3cn[nH]c3)cc12 [Compound 1]
- IC50 (PDGFRα(h)): 2700 nM
- IC50 (Hck(h)activated): 418 nM
- IC50 (Ros(h)): > 10000 nM
- IC50 (MAP4K4(h)): 63 nM
- IC50 (Ret(h)): 756 nM
- IC50 (CDK2/cyclinA(h)): > 10000 nM
- IC50 (JNK2α2(h)): > 10000 nM
- IC50 (c-kit(h)): 2840 nM
- IC50 (SAPK3(h)): > 10000 nM
- IC50 (SAPK2a(h)): > 10000 nM
- IC50 (Lck(h)activated): 1310 nM
- IC50 (JAK3(h)): 550 nM
- IC50 (CHK1(h)): > 10000 nM
- IC50 (Abl(h)): 152 nM
- IC50 (TGFBR1(h)): > 10000 nM
- IC50 (CSK(h)): > 10000 nM
- IC50 (Yes(h)): 204 nM
- IC50 (CDK6/cyclinD3(h)): > 10000 nM
- IC50 (IR(h)): > 10000 nM
- IC50 (Rse(h)): > 10000 nM
- IC50 (Src(1-530)(h)): 827 nM
- IC50 (TYK2(h)): 117 nM
- IC50 (Lyn(h)): 934 nM
- IC50 (cSRC(h)): 367 nM
- IC50 (SAPK2b(h)): > 10000 nM
- IC50 (CK1ε(h)): 385 nM
- IC50 (CYP1A2): > 50 nM
- IC50 (CYP2D6): > 50000 nM
